# Data published in patent US20180263975A1, “Methods Of Treating Motor And Movement Disorders And Side Effects Thereof Associated with Parkinson's Disease Treatments” (AMARANTUS BIOSCIENCE HOLDINGS, INC., priority 2015, published 2018).
# Entries after “also recorded” stand apart in the source; their conditions may differ.
# Experiments:
# 5-HT1a/5-HT1b receptor = conditions: cited from earlier work
# [1] = Daytime plasma concentration of eltoprazine under dosing regimens
# [2] = tested on: Parkinson's patients with L-DOPA induced dyskinesias; assay: Rush Dyskinesia Rating Scale AUC after a levodopa challenge dose; format: in vivo, human; conditions: 5 mg dose
# Text: This example describes a multicenter, randomized, double-blind, placebo-controlled, dose finding study of oral eltoprazine in Parkinson's patients with L-DOPA induced dyskinesias, in a levodopa challenge-dose setting in Parkinson's Disease. A total of 22 patients participated in the study, out of which 18 patients fulfilled the protocol in terms of eligibility, interventions, and outcome assessment. […]
# During each of five visits, and after a two-hour fast, each patient received a challenge dosage (150%—up to a maximum of 250 mg) of levodopa. […] The patients were periodically recorded for 180 minutes after treatment, and the videos were evaluated in a blinded manner.
# The term “Rush Dyskinesia Rating Scale” and “Rush DRS” refer to an observer-based rating scale based on fixed movements. The numerical parts of the Rush DRS are recorded separately from the descriptive parts, as described by Goetz et al., in Movement Disorders, Vol. 9, No. 4, 1994, 390-394.
# (§1) Filming occurred 30 minutes prior to, and every 30 minutes up to 180 minutes after a challenge test of L-DOPA and study medication. […] Videotaped records of each sequence were assessed by separate individual qualified raters at both of the two clinical centers. […]
# 5-HT1d receptor = conditions: Sijbesma 1990; cited from earlier work
# [3] = tested on: Parkinson's patients with L-DOPA induced dyskinesias; assay: UPDRS-III rating of parkinsonian symptoms (levodopa efficacy) after a levodopa challenge dose; format: in vivo, human; conditions: 5 mg and 7.5 mg doses
# Text: (§2) This example describes a multicenter, randomized, double-blind, placebo-controlled, dose finding study of oral eltoprazine in Parkinson's patients with L-DOPA induced dyskinesias, in a levodopa challenge-dose setting in Parkinson's Disease. A total of 22 patients participated in the study, out of which 18 patients fulfilled the protocol in terms of eligibility, interventions, and outcome assessment.
# (§3) During each of five visits, and after a two-hour fast, each patient received a challenge dosage (150%—up to a maximum of 250 mg) of levodopa. […] The patients were periodically recorded for 180 minutes after treatment, and the videos were evaluated in a blinded manner. […]
# Filming occurred 30 minutes prior to, and every 30 minutes up to 180 minutes after a challenge test of L-DOPA and study medication. […] Videotaped records of each sequence were assessed by separate individual qualified raters at both of the two clinical centers.
# Analyses were done on both the intention-to-treat (ITT) and per protocol (PP) population, if applicable. The change between test sessions of the highest observed Unified Parkinson's Disease Rating Scale-III (UPDRS) within each session will be calculated between the randomized placebo test session and each active test session and will be analyzed with Wilcoxon Signed Rank test on the ITT population.
# [4] = tested on: Parkinson's patients with L-DOPA induced dyskinesias; assay: Safety and tolerability in the dose finding study; format: in vivo, human; conditions: single oral doses 2.5, 5, 7.5 mg in PD patients
# Text: This study also assessed the safety and tolerability of eltoprazine in adults with Parkinson's Disease using the following measures: a) population mean values for the change in dyskinesia ratings between the placebo and screening baseline values and any of the eltoprazine dosages used, calculated as the peak-effect on CDRS of any study medication; b) population mean values for the change in dyskinesia ratings between the placebo and screening baseline values and any of the eltoprazine dosages used, calculated as the AuC on Rush DRS of any study medication; c) any changes in the UPDRS-III total score; d) any change in the diary data set, between the baseline and placebo and any of the three study medication tests; e) any deterioration of the HADS scores after study medication compared with placebo; f) any development of depression over the course of the study period, determined by the Montgomery Asberg Depression Rating Scale (MADRS) and clinical judgment; g) comparison between the effects on Rush Dyskinesia Rating Scale (DRS) and Clinical Dyskinesia Rating Scale (CDRS) Area under the Curve (AuC) and peak of dose effects for the three study medication dosages.
# After screening, each patient participated in the study for approximately 6-10 weeks. The duration of the study was about 30 weeks. […]
# [5] = tested on: Parkinson's patients with L-DOPA induced dyskinesias; assay: Clinical Dyskinesia Rating Scale (CDRS) rating of L-DOPA induced dyskinesia after a levodopa challenge dose; format: in vivo, human
# Text: as §2
# During the first visit, patients underwent screening for inclusion/exclusion criteria and safety assessments. Symptoms of parkinsonism, depression, and anxiety were assessed, and screening for significant L-DOPA dyskinesias were conducted using a challenge dose (150%) of L-DOPA. Subjects who were taking a prohibited medication were required to complete a washout period of appropriate length, as determined by the investigator. […]
# as §3, §1
# dopamine receptors = conditions: cited from earlier work
smiles,measurement,setting,value
"c1cc2c(c(N3CCNCC3)c1)OCCO2 [eltoprazine, 1-(2,3-dihydro-1,4-benzodioxin-5-yl) piperazine]","affinity for 5-HT1a versus 5-HT1b receptors, mixed agonist",5-HT1a/5-HT1b receptor; Schipper 1990,roughly equipotent affinity
same,receptor selectivity of binding profile,"5-HT1a/5-HT1b receptor; with respect to all receptors other than 5-HT1, Sijbesma 1990",selective 5-HT1 ligand
same,daytime plasma concentration profile (FIG. 4),"[1]; 5 mg and 7.5 mg b.d. at 4 hour intervals (2.5, 5, 7.5, 10 mg compared)",optimizes daytime plasma concentration from 10 AM to 8 PM
same,daytime plasma concentration profile (FIG. 3),"[1]; 7.5 mg twice daily at 4 or 6 hourly intervals (4, 6, 8, 12 h compared)",optimizes daytime plasma concentration from 10 AM to 8 PM
same,plasma concentration of drug,[1]; dose of 5 mg,approximately 10 ng/ml
same,plasma concentration of drug,[1]; dose of 7.5 mg,approximately 17 ng/ml
same,plasma concentration profile (FIG. 5),"[1]; three times daily 2.5, 5, 7.5 mg at 4 hour intervals",achieve maximal plasma concentrations in the late afternoon/evening period into the night time
same,reduction of LID measured by the Rush Scale AUC,[2],reduced LID in PD patients statistically significantly
same,affinity for the 5-HT1d receptor compared with serotonin,5-HT1d receptor,lower affinity
same,effect on L-DOPA efficacy measured by the UPDRS score (UPDRS-III),[3],did not affect L-DOPA efficacy; also recorded: no significant change
same,serious adverse events,[4],no serious adverse events
same,tolerability,[4],well tolerated
same,"reduction of LID measured by the CDRS scale, compared to placebo","[5]; 5 mg single oral dose with 150% L-DOPA challenge, p=0.0007",statistically significantly reduced LID
same,"reduction of LID measured by the CDRS scale, compared to placebo","[5]; 7.5 mg single oral dose with 150% L-DOPA challenge, p=0.0467",statistically significantly reduced LID
same,affinity for dopamine receptors,dopamine receptors,no relevant affinity
